Data set [1] in a line: Shake-flask distribution in the n-hexane/buffer pH 7.4 system. Format: physicochemical. Conditions: for logDapphex/buff / Dapphex/buff ·10^4: 310.2 K; for logDapphex/buff: cyclodextrin in buffer phase as in the label; for Dapphex/buff ·10^4: value = D·10^4, cyclodextrin in buffer phase as in the label; for Molar concentration C2 buf/hex ∙10^3 (aqueous phase): V(hex):V(buf)= 6:3 without and 10:3 with cyclodextrins, molar concentration × 10^3. Here is the method:
(§1) Apparent distribution coefficients of the compounds were measured in two systems: 1-octanol/buffer pH 7.4 and n-hexane/buffer pH 7.4 by the shake-flask technique at 310.2 ± 0.5 K in the absence (for IPN, INZ and iNAM) and in the presence of cyclodextrins (HP-β-CD and M-β-CD) in the aqueous phase (for IPN only). The concentrations of cyclodextrins were: 0.0115 M, 0.025 M and 0.035 M. The experiments were carried out according to the literature. In brief, the following experimental procedure was performed. Aqueous buffer pH 7.4 and organic solvent (1-octanol or n-hexane) were mixed during 48 h to obtain mutually saturated phases. The stock solutions containing the drug were prepared in buffer pH 7.4 saturated with the organic solvent. Both aliquots of the aqueous stock solution and organic solvent were placed in screwed glass vials and mixed at 310.2 ± 0.5 K during 3 days. The concentrations of the stock solutions were approximately 6.0 × 10^−3 M for both systems. The volumes of the phases were 3:3 in the 1-octanol/buffer pH 7.4 systems and 6:3 and 10:3 in the n-hexane/buffer pH 7.4 systems, without and with cyclodextrins, respectively. After mixing, the equilibrium was achieved; the vials were maintained at 310.2 ± 0.5 K, and the phases were separated from each other. The drug concentrations were determined using spectrophotometer (Cary-50 Varian, Palo Alto, CA, USA, Software Version 3.00 (339)). The experiments were carried out at least four-fold with an accuracy of 2–4%. The distribution coefficients were calculated using the following equation:(6) DappOrg/buf=C2Org/buf⋅V^buf/Org/C2buf/Org⋅V^Org/buf where DappOrg/buf is the distribution coefficient calculated from the concentrations of the compounds expressed in molar scale, C2Org/buf and C2buf/Org are the molar concentrations of the drug in the mutually saturated organic solvent/buffer and buffer/organic solvent phases, respectively, and V^buf/Org and V^Org/buf are the volumes of the saturated buffer and organic solvent phases, respectively. In addition, the ΔlogD parameters were estimated taking into account the distribution coefficients both in the 1-octanol/buffer pH 7.4 and n-hexane/buffer H 7.4 systems. As Abraham et al. stated, the difference between the distribution parameters in these systems ( ΔlogD ) can be applied to assess the specific interactions including a hydrogen-bonding impact to the drug transport properties and can be calculated as follows:(7) ΔlogD=logDappoct/buf−logDapphex/buf

Data set [2] in a line: Shake-flask distribution in the 1-octanol/buffer pH 7.4 system. The format is physicochemical. Conditions: for Dappoct/buff / logDappoct/buff: 310.2 K, cyclodextrin in buffer phase as in the label; for Molar concentration C2 buf/oct ∙10^3 (aqueous phase) / Molar concentration C2 oct/buf ∙10^3 (organic phase): V(oct):V(buf)= 3:3, molar concentration × 10^3. Here is the method:
as §1

A short description of data set [3]: Shake-flask solubility in 1-octanol and dissolution thermodynamics. The format is physicochemical. As to conditions: for solubility higher in 1-octanol than in n-hexane: 310.2 K, ratio of molar solubilities. Here is the method: (§2) The solubility of the investigated drugs in 1-octanol and n-hexane was determined by the shake-flask technique. To this end, the glass vials containing the solutions with the excess amount of the compound were placed in an air thermostat and stirred at a predetermined temperature for no less than 24 h (equilibrium state). After this, the suspensions were left for 5 h or more to precipitate the undissolved drug and centrifuged (Biofuge pico, Thermo Electron LED GmbH, Langenselbold, Germany) at a predetermined temperature during 20 min (10,000 rpm). The aliquots of the clear solutions were taken and examined via a spectrophotometer (Cary-50 Varian, Palo Alto, CA, USA, Software Version 3.00 (339)). The molar concentrations of the compounds in the solvents were calculated using calibration curves at the appropriate wavelength characteristic for each substance. The experimental results were reported as an average of at least three replicated experiments with an accuracy of 2–4%. In order to evaluate the thermodynamic parameters of the IPN dissolution in 1-octanol and n-hexane, the molar solubility ( S2 ) was recalculated to the mole fraction ( X2 ) by the equation:(1) X2=M2S2/S2(M1−M2)+1000ρ, where M1 and M2 are the molar masses of IPN and organic solvent, respectively, and ρ (g∙cm^−3) is the density of the pure solvents. The linear functions describing the temperature dependences of the solubility within the temperature interval from 293.2 ± 0.5 K to 313.2 ± 0.5 K for both organic solvents were derived:(2) lnX2=A+B/T
(§3) The apparent solution enthalpies ΔHsol0 were determined by the van’t Hoff equation:(3) ∂(lnX2)/∂T=ΔHsol0/RT^2
(§4) The apparent dissolution Gibbs energies ( ΔGsol ) and entropies ( ΔSsol ) were calculated at a standard temperature of 298.2 K and 310.2 K:(4) ΔGsol298.2/310.2=−RT(lnX2298.2/310.2) (5) ΔGsol298.2/310.2=ΔHsol0−TΔSsol298.2/310.2 where R is the universal gas constant.

Details of data set [4]: method as in doi:10.1016/j.jct.2015.08.022. As to conditions: cited from earlier work.
The nature of data set [5]: ΔlogD parameter (logDapp oct/buf − logDapp hex/buf). Format: physicochemical. Conditions: 310.2 K; pH 7.4; cyclodextrin in buffer phase as in the label. Here is the method: as §1, with “The volumes of the phases were 3:3 in the 1-octanol/buffer pH 7.4 systems and 6:3 and 10:3 in the n-hexane/buffer pH 7.4 systems, without and with cyclodextrins, respectively. After mixing, the equilibrium was achieved; the vials were maintained at 310.2 ± 0.5 K, and the phases were separated from each other.” left out, “The experiments were carried out at least four-fold with an accuracy of 2–4%.” left out, “In addition, the ΔlogD parameters were estimated taking into account the distribution coefficients both in the 1-octanol/buffer pH 7.4 and n-hexane/buffer H 7.4 systems.” left out

Data set [6] can be described thus: Shake-flask solubility in n-hexane and dissolution thermodynamics. Format: physicochemical. Conditions: T 310.2 K; value = S2 × 10^3. Here is the method: as §2, §3, §4
The conditions of data set [7]: PermeaPad barrier, 310.2 K, cited from earlier work.
The nature of data set [8]: Membrane permeability in Franz diffusion cell. Format: in vitro ADME. As to conditions: 310.2 K. Here is the method: Membrane permeability coefficients of the studied drugs were measured in the Franz diffusion cell of vertical type (PermeGear, Inc., Hellertown, PA, USA) with 7 mL/1 mL volumes of the donor and acceptor solutions through the reverse dialysis set up. The PermeaPad barrier (PHABIOC, Fritz-Souchon-Str.27 32339 Espelkamp Germany, www.innome.de) (0.785 cm^2 effective surface area) was mounted between the donor and acceptor chambers of the diffusion cell. The temperature was maintained at 310.2 ± 0.5 K throughout the experiment. Samples of 0.5 mL were withdrawn each 30 min from the acceptor solution and replaced with an equal amount of fresh buffer. Permeability experiments lasted over five hours in all cases. The solutions concentrations were analyzed via spectrophotometer (Spectramax 190; Molecular Devices Corporation, San Jose, CA, USA) in 96-well UV black plates (Costar) at a wavelength of 264 nm and 266 nm for IPN and INZ/iNAM, respectively. The dependences of the amount of the permeated drug over the surface area (dQ/A) on time (t) were plotted and flux (J) across the membrane was calculated by the equation:(11) J=dQ/A×dt The apparent permeability coefficients (Papp) were determined by normalizing the flux measured over the concentration of the drug in the donor compartment (C0) by the equation:(12) Papp=J/C0 Each permeability experiment was carried out in triplicate.
Similarly to the distribution, the permeability coefficients were obtained in the absence (for IPN, and iNAM) and in the presence of cyclodextrins (HP-β-CD and M-β-CD) (for IPN only) in the donor solution. The concentrations of cyclodextrins were 0.0115 M, 0.025 M and 0.035 M. The permeability coefficient for INZ through the PermeaPad barrier was determined in our previous investigation and taken in the present study for the sake of comparison.

Data on two compounds can be found in PMC10224004, “Modulation of Distribution and Diffusion through the Lipophilic Membrane with Cyclodextrins Exemplified by a Model Pyridinecarboxamide Derivative” (Pharmaceutics, 2023).

As usually defined, the Papp is the rate of passage across a membrane or cell layer, normalised by area and donor concentration.

Like-named read-outs stand apart in the source and are kept apart here.

On to `NNC(=O)c1ccncc1` [INZ, isonicotinic acid hydrazide], for which, in data set [1], the logDapphex/buff was −3.083, the “Dapphex/buff ·10^4” value is 8.254 ± 0.188 ·10^4 and the “Molar concentration C2 buf/hex ∙10^3 (aqueous phase)” value was 9.54 ∙10^3. For the same compound, in data set [2], the Dappoct/buff stood at 0.633 ± 0.021, the logDappoct/buff is recorded as −0.199, the “Molar concentration C2 buf/oct ∙10^3 (aqueous phase)” value is 5.31 ∙10^3 and the “Molar concentration C2 oct/buf ∙10^3 (organic phase)” value is 3.36 ∙10^3. Also, the “solubility higher in 1-octanol than in n-hexane” value in data set [3] amounted to 130 fold. In data set [4] (1-octanol, 298.2 K), the TΔSsol298.2 is 2.56 kcal/mol, the ΔGsol298.2 is 3.32 kcal/mol and the ΔHsol298.2 is 5.88 kcal/mol. Moreover, the “Molar solubility S2 × 10^1 in 1-Octanol” value in data set [4] (T 310.2 K, value = S2 × 10^1) is listed as “^a 1.78 ± 0.04 × 10^1 (M)”. The ΔlogD in data set [5] is 2.88. Moreover, the “Molar solubility S2 × 10^3 in n-Hexane” value in data set [6] is reported as 1.37 ± 0.05 × 10^3 (M). In data set [7] (pH 7.4, value = Papp × 10^5), the “Papp∙10^5” value is recorded as 1.44±0.08 ∙10^5 (cm∙s‐1). For the same compound, the “permeability coefficient (Papp)” value in data set [7] (without cyclodextrins) was 14.4 ×10⁻⁶ cm/s.

In the case of `NC(=O)c1ccncc1` [iNAM, pyridine-4-carboxylic acid amide], in data set [1], the logDapphex/buff was −3.241, the “Dapphex/buff ·10^4” value is given as 5.742 ± 0.172 ·10^4 and the “Molar concentration C2 buf/hex ∙10^3 (aqueous phase)” value is 8.64 ∙10^3. For the same compound, in data set [2], the Dappoct/buff is recorded as 0.446 ± 0.013, the logDappoct/buff is given as −0.351, the “Molar concentration C2 buf/oct ∙10^3 (aqueous phase)” value was 6.33 ∙10^3 and the “Molar concentration C2 oct/buf ∙10^3 (organic phase)” value was 2.83 ∙10^3. Further, the “solubility higher in 1-octanol than in n-hexane” value in data set [3] was determined as 115 fold. For the same compound, the “Molar solubility S2 × 10^1 in 1-Octanol” value in data set [3] (T 310.2 K, value = S2 × 10^1) is recorded as 1.26 ± 0.02 × 10^1 (M). The same compound came in with a ΔlogD in data set [5] of 2.89. Also, the “Molar solubility S2 × 10^3 in n-Hexane” value in data set [6] is listed as 1.10 ± 0.04 × 10^3 (M). In data set [8] (PermeaPad barrier, pH 7.4, printed value = J × 10^4, cyclodextrin in donor solution as in the label), the “steady penetrate rate - flux J∙10^4” value is reported as 0.59 ∙10^4 (μM∙cm‐2∙s‐1). Besides, in data set [8] (PermeaPad barrier, pH 7.4, value = Papp × 10^5, cyclodextrin in donor solution as in the label), the “Papp∙10^5” value is on record as 0.73±0.04 ∙10^5 (cm∙s‐1). Also, the Papp at 5 h in data set [8] (pH 7.4, PermeaPad barrier, without cyclodextrins, read-out: permeability coefficient (Papp)) is 7.3 ×10⁻⁶ cm/s.
